These compounds were tested against T1, human PAH with the R408W mutation (Homo sapiens, UniProt P00439, R408W) (assay: Cell Based Phenylalanine Flux Assay). Conditions: A375 cells expressing human R408W PAH; 24 hrs with compound, then sepiapterin and 13C9,15N-Phenylalanine for 4 hours; 13C-Tyrosine by LC-MS; average where tested multiple times; read-out: AC50.
T1 construct: expressed in transfected cells
T1 sequence (P00439 1-452 R408W): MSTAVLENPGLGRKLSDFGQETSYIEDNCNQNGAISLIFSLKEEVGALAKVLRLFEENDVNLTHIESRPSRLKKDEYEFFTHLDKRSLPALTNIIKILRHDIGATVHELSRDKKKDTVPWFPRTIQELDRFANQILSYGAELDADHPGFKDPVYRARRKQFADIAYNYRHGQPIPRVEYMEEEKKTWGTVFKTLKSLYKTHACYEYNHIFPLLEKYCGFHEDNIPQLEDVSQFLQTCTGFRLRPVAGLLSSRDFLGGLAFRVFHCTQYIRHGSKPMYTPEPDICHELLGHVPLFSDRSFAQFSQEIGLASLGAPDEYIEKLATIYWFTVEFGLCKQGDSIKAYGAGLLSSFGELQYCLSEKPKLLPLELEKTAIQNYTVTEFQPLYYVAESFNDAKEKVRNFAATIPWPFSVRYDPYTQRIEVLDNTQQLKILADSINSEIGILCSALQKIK
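Note: Ten-point dose curve from 2-fold serial dilutions, run in duplicate at 0.5% DMSO final, tracer step used 20 µM sepiapterin and 800 µM labeled phenylalanine.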

AC50 | Compound
1000 to 5000 nM | O=C(c1cn[nH]c1C(F)F)N1CCc2[nH]cnc2[C@H]1c1cc2ccccn2n1 [Example 2366, (S)-(5-(difluoromethyl)-1H-pyrazol-4-yl)(4-(pyrazolo[1,5-a]pyridin-2-yl)-6,7-dihydro-1H-imidazo[4,5-c]pyridin-5(4H)-yl)methanone]
> 5000 nM | Cc1ccc2cc([C@H]3c4nc[nH]c4CCN3C(=O)c3nnc(-c4cnn(C)c4)o3)nn2c1 [Example 2381, (R)-(5-(1-methyl-1H-pyrazol-4-yl)-1,3,4-oxadiazol-2-yl)(4-(6-methylpyrazolo[1,5-a]pyridin-2-yl)-6,7-dihydro-1H-imidazo[4,5-c]pyridin-5(4H)-yl)methanone]
1000 to 5000 nM | O=C(c1nnc(C2CC2)o1)N1CCc2[nH]cnc2[C@H]1c1cc2ccc(F)cn2n1 [Example 2404, (S)-(5-cyclopropyl-1,3,4-oxadiazol-2-yl)(4-(6-fluoropyrazolo[1,5-a]pyridin-2-yl)-6,7-dihydro-1H-imidazo[4,5-c]pyridin-5(4H)-yl)methanone]
1000 to 5000 nM | Cn1cc(-c2nnc(C(=O)N3CCc4[nH]cnc4[C@H]3c3cc4ccc(C(F)(F)F)cn4n3)o2)cn1 [Example 2416, (S)-(5-(1-methyl-1H-pyrazol-4-yl)-1,3,4-oxadiazol-2-yl)(4-(6-(trifluoromethyl)pyrazolo[1,5-a]pyridin-2-yl)-6,7-dihydro-1H-imidazo [4,5-c]pyridin-5(4H)-yl)methanone]
1000 to 5000 nM | O=C(c1nnc(-c2cnn(C(F)(F)F)c2)o1)N1CCc2[nH]cnc2[C@H]1c1cc2cccc(C(F)(F)F)n2n1 [Example 2428, (S)-(5-(1-(trifluoromethyl)-1H-pyrazol-4-yl)-1,3,4-oxadiazol-2-yl)(4-(7-(trifluoromethyl)pyrazolo[1,5-a]pyridin-2-yl)-6,7-dihydro-1H-imidazo[4,5-c]pyridin-5(4H)-yl)methanone]
> 5000 nM | CN(C)c1ccc2c(C(=O)N3CCc4[nH]cnc4[C@@H]3c3cc4cccc(Cl)n4n3)cnn2c1 [Example 2475, (R)-(4-(7-chloropyrazolo [1,5-a]pyridin-2-yl)-6,7-dihydro-1H-imidazo[4,5-c]pyridin-5(4H)-yl)(6-(dimethylamino)pyrazolo[1,5-a]pyridin-3-yl)methanone]
1000 to 5000 nM | Cc1nnc(C(=O)N2CCc3[nH]cnc3[C@H]2c2cc3c(C4CC4)cccn3n2)o1 [Example 2494, (S)-(4-(4-cyclopropylpyrazolo [1,5-a]pyridin-2-yl)-1,4,6,7-tetrahydro-5H-imidazo [4,5-c]pyridin-5-yl)(5-methyl-1,3,4-oxadiazol-2-yl)methanone]
1000 to 5000 nM | CC(C)c1cccn2nc([C@@H]3c4nc[nH]c4CCN3c3nnc(-c4cccnn4)o3)cc12 [Example 2512, (S)-2-(4-(4-isopropylpyrazolo [1,5-a]pyridin-2-yl)-1,4,6,7-tetrahydro-5H-imidazo [4,5-c]pyridin-5-yl)-5-(pyridazin-3-yl)-1,3,4-oxadiazole]
500 to 1000 nM | (S)-(6-(methoxymethyl) pyrazolo[1,5-a]pyridin-3-yl)(4- (4-methylpyrazolo[1,5-a] pyridin-2-yl)-6,7-dihydro-1H- imidazo[4,5-c]pyridin- 5(4H)-yl)methanone [Example 1624]
